Four compounds from patent publication US20240368113A1, “AMIDE COMPOUND AND USE THEREOF” (Chengdu Fendi Pharmaceutical Co. Ltd., priority 2021, published 2024) can be followed below.

A value given as a limit tells only on which side of the number the result lay.

The subject of one data set is MV-4-11 cells. Put plainly: Inhibition of tumor cell proliferation (CellTiter-Glo). In kind it is cell-based. As to conditions: Homo sapiens, MV4-11; MV-4-11 cells, 72 h, CellTiter-Glo; read-out: IC50 of inhibitory activity of tumor cell proliferation. The method, then: MV-4-11 cells were diluted with medium (RPM1640+10% FBS+1% PS) and plated at 4000 cells/well in a white-walled clear-bottom 96-well plate. MV-4-11 cells were plated and incubated in a 5% CO2, 37° C. incubator for 2 hours. Cells were treated with the indicated concentration of compound or DMSO (control), and placed in a 5% CO2, 37° C. incubator for 72 h after dosing. After the end of the culture, equilibrate at room temperature for 30 min, add 100 μl of CellTiter-Glo® Reagent to each well, and shake the microplate shaker for 2 min. After 10 min of incubation at room temperature, the luminescence was measured by a microplate reader, and the cell-free wells were used as the background wells. CC-90009 (celegen patent phase I) was used as a control, and its structural formula was as follows: 0

In data set [1] the target is T1, GSPT1 (Homo sapiens, UniProt P15170). Put plainly: Western blot of GSPT1 degradation in MV-4-11 cells. The class given is cell-based. Details: endogenous in cells. Particulars: 4 h treatment, western blot (FIG. 1). The procedure:
(§1) Test Case 1: Regulatory Effect of the Present Invention Compound on GSPT1 in MV-4-11 Cells MV-4-11 (human myeloid monocytic leukemia cells) and NB-4 (human acute promyelocytic leukemia cells) cells were treated with medium RPMI 1640+10% FBS at 1*10^6/well was seeded in 6-well plates, then compounds were added for 4 h treatment, DMSO was used as a blank control, and cells were collected by centrifugation. Western blot analysis was performed with antibody labeling (Anti-GSPT1: CellSignaling Technology #14980s; Anti-GAPDH: HuabioET601-4; Goatanti-RabbitIgG-HRPantibody: HuabioHA1001) for detection on a Bio-Rad or MINICHEMI™ imaging system.

The target of data set [2] is T2, hERG potassium channel (Homo sapiens, UniProt Q12809). As to the kind of experiment: in vitro. As to conditions: hERG Inhibition rate (3 μM), HEK293 cells expressing hERG, 3 min exposure.
T2 sequence (Q12809 whole entry): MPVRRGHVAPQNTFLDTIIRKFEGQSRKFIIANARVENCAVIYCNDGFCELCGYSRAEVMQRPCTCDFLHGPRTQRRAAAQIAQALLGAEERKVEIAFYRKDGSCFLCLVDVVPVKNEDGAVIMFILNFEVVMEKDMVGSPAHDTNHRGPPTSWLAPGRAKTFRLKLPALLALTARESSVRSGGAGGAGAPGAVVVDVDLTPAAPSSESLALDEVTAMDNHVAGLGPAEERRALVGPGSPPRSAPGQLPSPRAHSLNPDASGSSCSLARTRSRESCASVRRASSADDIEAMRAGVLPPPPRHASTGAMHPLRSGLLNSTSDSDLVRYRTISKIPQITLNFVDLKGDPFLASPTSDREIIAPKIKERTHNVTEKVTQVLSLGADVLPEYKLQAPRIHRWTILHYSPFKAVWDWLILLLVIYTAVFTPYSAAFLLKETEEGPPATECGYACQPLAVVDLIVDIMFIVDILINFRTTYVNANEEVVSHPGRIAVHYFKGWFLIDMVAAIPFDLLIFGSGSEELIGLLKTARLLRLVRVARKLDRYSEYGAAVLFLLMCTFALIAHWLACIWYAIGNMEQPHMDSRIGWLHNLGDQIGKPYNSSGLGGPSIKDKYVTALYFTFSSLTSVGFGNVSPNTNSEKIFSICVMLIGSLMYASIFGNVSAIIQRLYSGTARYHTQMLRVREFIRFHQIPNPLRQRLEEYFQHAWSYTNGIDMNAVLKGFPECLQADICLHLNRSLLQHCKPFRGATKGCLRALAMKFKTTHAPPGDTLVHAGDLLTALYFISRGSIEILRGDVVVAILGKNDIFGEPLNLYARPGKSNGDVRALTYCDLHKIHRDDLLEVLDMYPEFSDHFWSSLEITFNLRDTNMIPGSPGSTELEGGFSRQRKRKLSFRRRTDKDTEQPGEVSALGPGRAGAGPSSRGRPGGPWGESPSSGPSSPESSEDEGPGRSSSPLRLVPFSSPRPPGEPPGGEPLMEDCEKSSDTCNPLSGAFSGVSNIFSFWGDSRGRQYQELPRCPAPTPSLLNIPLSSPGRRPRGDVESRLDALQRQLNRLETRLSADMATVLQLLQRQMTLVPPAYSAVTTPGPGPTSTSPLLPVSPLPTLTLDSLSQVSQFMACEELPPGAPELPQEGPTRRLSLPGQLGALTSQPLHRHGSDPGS
Method: (§2) This test example is used to measure the effect of the compound on the hERG potassium channel of the clone expressed in human embryonic kidney cells (HEK293).
(§3) Assay: cells are placed in HEPES-buffered saline solution in glass-lined 96-well plates and loaded with appropriate amounts of test and control solution (0.3% DMSO solution) at each concentration for 3 min exposure time. Dilute the compound to be tested in 0.3% DMSO. An automated parallel patch-clamp system QPatch 48 X (Sophion) was used to test the inhibition of hERG by compounds at a concentration of 3 μM.
(§4) The calculation method of the inhibition rate is as follows: (peak tail current in the control group−peak tail current in the test group)/(peak tail current in the control group)×100%.
The target of data set [3] is T2, hERG potassium channel. Put plainly: hERG inhibition assay (automated patch clamp, QPatch). Particulars: HEK293 cells expressing hERG, 3 min exposure.
Method: as §2, §3, §4
The target of data set [4] is T1, GSPT1. As to the kind of experiment: Western blot of GSPT1 degradation in NB-4 cells. The class given is cell-based. More on the design: endogenous in cells; host or cells: NB-4. The procedure: as §1

T1 sequence (P15170 whole entry): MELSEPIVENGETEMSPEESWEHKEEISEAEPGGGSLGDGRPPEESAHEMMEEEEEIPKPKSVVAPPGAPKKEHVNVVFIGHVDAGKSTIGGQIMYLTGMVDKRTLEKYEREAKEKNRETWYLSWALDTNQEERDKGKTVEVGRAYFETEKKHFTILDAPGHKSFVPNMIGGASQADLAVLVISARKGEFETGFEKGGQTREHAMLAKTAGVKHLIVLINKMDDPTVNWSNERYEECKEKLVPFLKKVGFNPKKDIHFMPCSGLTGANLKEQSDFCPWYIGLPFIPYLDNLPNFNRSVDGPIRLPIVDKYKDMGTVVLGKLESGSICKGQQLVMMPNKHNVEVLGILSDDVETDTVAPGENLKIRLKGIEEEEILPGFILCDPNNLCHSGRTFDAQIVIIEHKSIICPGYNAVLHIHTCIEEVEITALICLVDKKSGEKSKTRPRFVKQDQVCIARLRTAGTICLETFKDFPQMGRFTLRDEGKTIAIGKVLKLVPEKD

`O=C(C#Cc1ccc(F)cn1)NCc1ccc2c(c1)CN(C1CCC(=O)NC1=O)C2=O` (stereo not shown) [Compound 12]: in the data set on MV-4-11 cells, the IC50 was in the range of 1 to 10 nM. The “degradation of GSPT1, concentration dependence” value on GSPT1 [1] (concentrations from 1.52 nM) was “induced the degradation of GSPT1 more as the concentration increases”.
As to `CCc1ccc(C#CC(=O)NCc2ccc3c(c2)CN(C2CCC(=O)NC2=O)C3=O)cc1` (stereo not shown) [Compound 1], the IC50 in the data set on MV-4-11 cells is under 1 nM. The “degradation of GSPT1 protein” value at GSPT1 [1] (10 μM) is on record as “completely degradation”.
As for `O=C1CCC(N2Cc3cc(CNC(=O)C(F)(F)c4ccc(Cl)cc4)ccc3C2=O)C(=O)N1` (stereo not shown) [CC-90009], the IC50 in the data set on MV-4-11 cells was in the range of 10 to 100 nM. In addition, on hERG potassium channel [2], at 3 µM the inhibition was 64%. For the same compound, on hERG potassium channel [3], the “hERG Inhibition rate (3 μM)” value is 64.48%.
Regarding `Nc1ccccc1C#CC(=O)NCc1ccc2c(c1)CN(C1CCC(=O)NC1=O)C2=O` (stereo not shown) [Compound 83], the IC50 in the data set with MV-4-11 cells is 1 to 10 nM. In addition, on GSPT1 [4] (0.01 μM, 4 h treatment, western blot (FIG. 1)), the “degradation of GSPT1” value is listed as “significantly degradation”. Also, at GSPT1 [4] (pretreatment with proteasome inhibitor MG132 or NEDD8 activating enzyme inhibitor MLN4924), the “compound-induced degradation of GSPT1 after pretreatment with MG132 or MLN4924” value was “completely blocked”.
